This passage reports IC50 results from patent publication US10029993B2, “Disubstituted 1, 2, 4-triazine compound” (MITSUBISHI TANABE PHARMA CORPORATION, priority 2014, dated 2018).

SMILES strings stand for the structures.

human CYP11B2, sequence (P19099 25-503): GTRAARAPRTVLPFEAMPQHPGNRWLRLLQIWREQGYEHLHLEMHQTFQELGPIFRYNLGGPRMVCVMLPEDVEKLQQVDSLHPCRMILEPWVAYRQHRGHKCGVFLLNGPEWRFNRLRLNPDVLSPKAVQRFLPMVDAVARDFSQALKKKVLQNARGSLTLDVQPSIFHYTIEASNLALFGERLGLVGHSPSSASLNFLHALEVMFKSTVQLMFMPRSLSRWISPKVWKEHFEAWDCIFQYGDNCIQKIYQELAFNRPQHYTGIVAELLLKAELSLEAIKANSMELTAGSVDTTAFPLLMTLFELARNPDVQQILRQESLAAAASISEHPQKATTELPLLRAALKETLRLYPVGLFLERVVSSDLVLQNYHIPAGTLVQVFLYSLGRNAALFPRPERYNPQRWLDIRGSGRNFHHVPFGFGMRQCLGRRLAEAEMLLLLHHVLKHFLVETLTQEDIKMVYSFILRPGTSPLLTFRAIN

In the assay the target is human CYP11B2 (Homo sapiens (Human), UniProt P19099). The experiment in a line: Inhibitory effect on hCYP11B2 (aldosterone production by mitochondrial fraction of V79 cells stably expressing human CYP11B2, HTRF). The conditions noted are these: 0.5 μmol/L deoxycorticosterone, 150 μmol/L NADPH, 1.5-2 hours at room temperature. Type of assay: biochemical. On the procedure:
Experimental Example 1 (Inhibitory Effect on hCYP11B2)
The pcDNA3.1-human CYP11B2 plasmid was transfected into a Chinese hamster lung fibroblast V79 cell line to produce a cell line stably expressing human CYP11B2 gene.
The cells were cultured and grown in the Dulbecco's modified Eagle's/Ham's medium supplemented with 10% fetal bovine serum and 1% G418 disulfate solution under the environment of 37° C., 95% air, and 5% CO2, and the grown cells were harvested.
Then, the cells were fractionated to obtain mitochondria by reference to a method described in Chabre et al. JCE 86 M 85 (11) 4060-68, 2000. In particular, the cells suspended in a 5 mmol/L Tris-HCl buffer (pH 7.4) containing 250 mmol/L sucrose were homogenized in a Teflon (Registered Trademark) Potter Elvehjem homogenizer, and then the suspension was centrifuged (800×g, 15 min.). The supernatant was separated and again centrifuged (10000×g, 15 min.) to obtain a pellet (mitochondrial fraction).
The mitochondrial fraction diluted with a buffer containing 10 mmol/L KH2PO4, 10 mmol/L Tris, 20 mmol/L KCl, 25 mmol/L sucrose, 5 mmol/L MgCl2, and 0.05% bovine serum albumin was dispensed to a 96-well plate. 0.5 μmol/L Deoxycorticosterone, 150 μmol/L NADPH and a compound of each concentration were added to each well, and incubated for 1.5-2 hours at room temperature to produce aldosterone. An amount of the produced aldosterone in the incubated solution was determined by using HTRF (Homogeneous Time Resolved Fluorescence) method.
IC 50 (nmol/L) was calculated by analyzing the aldosterone production inhibition rate (%) of each concentration of compounds by non-linear regression to a logistic curve.
(In general: Time-resolved FRET reads energy transfer from a long-lived donor to a nearby acceptor.)
The term IC50 denotes the concentration that gives 50% inhibition. Compound `CN(C)[C@H]1CC[C@H](NC(=O)C(O)C2CCN(c3nncc(-c4ccc(F)cc4)n3)CC2)CC1` (relative stereo) [Example 252, 3-[4-[[[trans-4-(dimethylamino)cyclohexyl]carbamoyl]hydroxymethyl]piperidino]-5-(4-fluorophenyl)-1,2,4-triazine] returned an IC50 of 15 nM. For `CC(C)[C@@H](CO)NC(=O)CN1CCN(c2nncc(-c3ccc(C(F)(F)F)cc3)n2)CC1` [Example 16] the value was 16 nM; for `CN(C)[C@H]1CC[C@H](NC(=O)CN2CCN(c3nncc(-c4ccc(Cl)cc4)n3)CC2)CC1` [Example 18], 7.9 nM.

Consider `CO[C@H]1CC[C@H](NC(=O)CN2CCN(c3nncc(-c4ccc5c(cnn5C)c4)n3)CC2)CC1` [Example 19], for which the IC50 was 17 nM. The same measure for `O=C1CN([C@H]2CC[C@H](NC(=O)CN3CCN(c4nncc(-c5ccc(F)cc5)n4)CC3)CC2)CCN1` [Example 26]: 8.5 nM. Turning to `O=C(CN1CCN(c2nncc(-c3ccc(Cl)cc3)n2)CC1)NC1CCS(=O)(=O)CC1` [Example 27], the IC50 was 13 nM.

The compound `O=C(CN1CCN(c2nncc(-c3ccc(F)cc3)n2)CC1)N[C@H]1CC[C@H](N2CCOCC2)CC1` [Example 28] returned an IC50 of 8.4 nM.

`O=C(CN1CCN(c2nncc(-c3ccc(F)cc3)n2)CC1)NC1CCN(CC(=O)N2CCOCC2)CC1` [Example 38]: inhibition was half-maximal at 14 nM (IC50). For `CNC(=O)CN1CCC(NC(=O)CN2CCN(c3nncc(-c4ccc(F)cc4)n3)CC2)CC1` [Example 44] the value was 17 nM; for `O=C(CN1CCN(c2nncc(-c3ccc(F)cc3)n2)CC1)NCCN1CCS(=O)(=O)CC1` [Example 47], 11 nM; for `CC(=O)N[C@H]1CC[C@H](NC(=O)CN2CCN(c3nncc(-c4ccc(C)cc4)n3)CC2)CC1` [Example 48], 9 nM.

The compound `Cc1ccc(-c2cnnc(N3CCN(CC(=O)N[C@H]4CC[C@H](S(C)(=O)=O)CC4)CC3)n2)cc1` [Example 50] yielded a 50% inhibitory concentration (IC50) of 6.3 nM. Consider `CN1CC[C@H](NC(=O)CN2CCN(c3nncc(-c4ccc(Cl)cc4)n3)CC2)CC1=O` [Example 54], for which the IC50 was 7.2 nM.

In the case of `CNC(=O)CO[C@H]1CC[C@H](NC(=O)CN2CCN(c3nncc(-c4ccc(F)cc4)n3)CC2)CC1` [Example 55], half-maximal inhibition (IC50) was put at 8.7 nM. The same measure for `NC(=O)N1CCC(O)(CNC(=O)CN2CCN(c3nncc(-c4ccc(Cl)cc4)n3)CC2)CC1` [Example 59]: 19 nM; for `Cc1ccc(-c2cnnc(N3CCN(CC(=O)NC4CCN(CCNS(C)(=O)=O)CC4)CC3)n2)cc1` [Example 62]: 10 nM; for `CN(C)C(=O)Cn1cc(NC(=O)CN2CCN(c3nncc(-c4ccc(F)cc4)n3)CC2)cn1` [Example 71]: 6.1 nM. Consider `Cc1ccc(-c2cnnc(N3CCN(CC(=O)Nc4cnn(CC(=O)N(C)C)c4)CC3)n2)cc1` [Example 75], for which half-maximal inhibition (IC50) required 7.6 nM. For `CN(C)C(=O)Cn1cc(NC(=O)CN2CCN(c3nncc(-c4ccc(Cl)cc4)n3)CC2)cn1` [Example 76] the value was 4.5 nM. `CNC(=O)Cn1cc(NC(=O)CN2CCN(c3nncc(-c4ccc(C)cc4)n3)CC2)cn1` [Example 79] yielded an IC50 of 4.5 nM. `CNC(=O)Cn1cc(NC(=O)CN2CCN(c3nncc(-c4ccc(F)cc4)n3)CC2)cn1` [Example 80] showed an IC50 of 4.5 nM. On to `CNC(=O)Cn1cc(NC(=O)CN2CCN(c3nncc(-c4ccc(Cl)cc4)n3)CC2)cn1` [Example 81], for which the IC50 amounted to 2.7 nM. The compound `CN1CCNC(=O)C12CCC(NC(=O)CN1CCN(c3nncc(-c4ccc(F)cc4)n3)CC1)CC2` (stereo not drawn) [Example 82] displayed an IC50 of 12 nM.

`CN(C)[C@H]1CC[C@H](NC(=O)CN2CCN(c3nncc(-c4cc(F)ccc4F)n3)CC2)CC1` [Example 83]: the midpoint of inhibition, the IC50, lay at 7.6 nM.

The compound `CN1CC[C@H](NC(=O)CN2CCN(c3nncc(-c4ccc5c(c4)COC5)n3)CC2)CC1=O` [Example 84] yielded an IC50 of 25 nM. In turn, `CNC(=O)CN1CCC(NC(=O)CN2CCN(c3nncc(-c4ccc(C)cc4)n3)CC2)CC1` [Example 85] had an IC50 of 9.9 nM.

`Cc1ccccc1-c1cnnc(N2CCN(CC(=O)Nc3cccnc3)CC2)n1` [Example 86] showed an IC50 of 0.5 nM. The same measure for `O=C(CN1CCN(c2nncc(-c3ccc(F)cc3)n2)CC1)NC1CN(C(=O)C2(O)CC2)C1` [Example 141]: 11 nM. For `Cc1ncc(CN2CCC(NC(=O)CN3CCN(c4nncc(-c5ccc(F)cc5)n4)CC3)CC2)[nH]1` [Example 147] the value was 18 nM.

Compound `O=C(CN1CCN(c2nncc(-c3ccc(F)cc3)n2)CC1)NC1CCN(CC2=NCCN2)CC1` [Example 151, 3-[4-[[1-[(4,5-dihydro-1H-imidazol-2-yl)methyl]piperidin-4-yl]carbamoylmethyl]piperazin-1-yl]-5-(4-fluorophenyl)-1,2,4-triazine] registered an IC50 of 16 nM. For `Cc1nc[nH]c1CN1CCC(NC(=O)CN2CCN(c3nncc(-c4ccc(F)cc4)n3)CC2)CC1` [Example 153] the value was 18 nM. The same measure for `Cc1nc[nH]c1CN1CCC(NC(=O)CN2CCN(c3nncc(-c4ccc(Cl)cc4)n3)CC2)CC1` [Example 154]: 1.1 nM; for `O=C(CN1CCN(c2nncc(-c3ccc(C(F)(F)F)cc3)n2)CC1)NC1CC2COCC(C1)C2O` (stereo not drawn) [Example 157a, 3-[4-[[(7-exo-9-endo)-9-hydroxy-3-oxabicyclo[3.3.1]nonan-7-yl]carbamoylmethyl]piperazin-1-yl]-5-(4-trifluoromethylphenyl)-1,2,4-triazine]: 14 nM; for `CN1CCO[C@@H](CNC(=O)CN2CCN(c3nncc(-c4ccc(F)cc4)n3)CC2)C1` [Example 159a, 5-(4-fluorophenyl)-3-[4-[[(4-methylmorpholyn-2-yl)methyl]carbamoylmethyl]piperazin-1-yl]-1,2,4-triazine]: 7.7 nM. The same measure for `Cc1ccccc1-c1cnnc(N2CCN(c3ccc(F)cc3)CC2)n1` [Example 170, 3-[4-(4-fluorophenyl)piperazin-1-yl]-5-(o-tolyl)-1,2,4-triazine]: 23 nM; for `Clc1ccc(-c2cnnc(N3CCN(C4CCOCC4)CC3)n2)cc1` [Example 178]: 5 nM; for `CC(C)NC(=O)NC1CCN(c2nncc(-c3ccc(F)cc3)n2)CC1` [Example 180]: 6.1 nM. `Cc1ccccc1-c1cnnc(N2CCC(CCCO)CC2)n1` [Example 183] had an IC50 of 0.7 nM.

In turn, `Cc1ccccc1-c1cnnc(N2CC[C@@H](Oc3ccncc3)C2)n1` [Example 188] came in with an IC50 of 6 nM. In turn, `CN(CCCS(C)(=O)=O)c1nncc(-c2ccc3ccccc3c2)n1` [Example 192] returned an IC50 of 38 nM. For `CC(=O)N1CCC(CNc2nncc(-c3ccc4ccccc4c3)n2)CC1` [Example 196] the value was 67 nM. The same measure for `O=C1NCC2(CCN(c3nncc(-c4ccc5ccccc5c4)n3)CC2)O1` [Example 199]: 12 nM; for `Cn1c(-c2cnnc(N3CCOCC3)n2)cc2ccccc21` [Example 211, 5-(1-methyl-1H-indol-2-yl)-3-morpholino-1,2,4-triazine]: 2.4 nM; for `CC(C)NC(=O)CN1CCN(c2nncc(-c3ccc(C#N)nc3)n2)CC1` [Example 215, 5-(2-cyano-5-pyridyl)-3-[4-(isopropylcarbamoylmethyl)piperazin-1-yl]-1,2,4-triazine]: 29 nM.

In turn, `CC(C)NC(=O)CN1CCN(c2nncc(-c3cccc4c3COCC4)n2)CC1` [Example 218] showed an IC50 of 9.8 nM. In turn, `CC(C)NC(=O)CN1CCN(c2nncc(-c3ccc4c(c3)CCO4)n2)CC1` [Example 219] showed an IC50 of 3.1 nM. Compound `CC(C)NC(=O)CN1CCN(c2nncc(-c3ccc4ncsc4c3)n2)CC1` [Example 220] yielded a 50% inhibitory concentration (IC50) of 20 nM. The compound `CC(C)NC(=O)CN1CCN(c2nncc(-c3ccc(C(F)(F)F)cc3)n2)CC1` [Example 221] came in with an IC50 of 2.4 nM.

As to `CC(C)NC(=O)CN1CCN(c2nncc(-c3ccc4c(c3)CNN4C)n2)CC1` [Example 222], half-maximal inhibition (IC50) was put at 26 nM. Consider `c1nnc(N2CCOCC2)nc1CC1CCCCC1` [Example 233, 5-cyclohexylmethyl-3-morpholino-1,2,4-triazine], for which half-maximal inhibition (IC50) was put at 20 nM.

In turn, `Cc1ccccc1-c1cnnc(N(Cc2ccccn2)S(C)(=O)=O)n1` [Example 236, 3-[N-(methylsulfonyl)-N-(2-pyridylmethyl)amino]-5-(o-tolyl)-1,2,4-triazine] yielded an IC50 of 23 nM. For `Cc1ccccc1-c1cnnc(C2CCCN(c3ncccn3)C2)n1` (stereo not drawn) [Example 244, 3-[1-(pyrimidine-2-yl)-piperidin-3-yl]-5-(o-tolyl)-1,2,4-triazine] the value was 11 nM. Regarding `CC(C)CC(=O)NN1CCN(c2nncc(-c3ccc(Cl)cc3)n2)CC1` [Example 251, 5-(4-chlorophenyl)-3-[4-[(3-methylbutanoyl)amino]piperazin-1-yl]-1,2,4-triazine], half-maximal inhibition (IC50) was put at 7.5 nM. In turn, `c1ccc(COc2cnnc(N3CCOCC3)n2)cc1` [Example 256, 5-benzyloxy-3-morpholino-1,2,4-triazine] came in with an IC50 of 26 nM.
